{"source": "patent US12077503B2", "about": "“Substituted cyclic amides and their use as herbicides” (FMC CORPORATION, priority 2015, dated 2024)", "type_in_all_cases": "in vivo", "key": {"[1]": {"tested_on": "pigweed (Amaranthus retroflexus)", "assay": "Test A preemergence", "details": "Amaranthus retroflexus, pre-emergence, 240 h, Preemergence"}, "[2]": {"tested_on": "ryegrass, Italian (Italian ryegrass, Lolium multiflorum)", "assay": "Test A preemergence", "details": "Lolium multiflorum, pre-emergence, 240 h, Preemergence", "in_short": "(§1)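 Greenhouse, ~10 d after spray; visual injury vs untreated controls, 0 = no effect, 100 = complete control. Preemergence: directed soil spray over planted seeds. Postemergence: plants 2–10 cm, 1–2 leaf stage. Loam/sand blend. Compound in non-phytotoxic solvent with surfactant.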"}, "Kochia (Kochia scoparia) [3]": {"tested_on": "Kochia (Kochia scoparia)", "assay": "Test A preemergence", "details": "Bassia scoparia, pre-emergence, 240 h, Preemergence", "in_short": "as §1"}, "[4]": {"tested_on": "barnyardgrass (Echinochloa crus-galli)", "assay": "Test A preemergence", "details": "Echinochloa crus-galli, pre-emergence, 240 h, Preemergence", "in_short": "as §1"}, "[5]": {"tested_on": "giant foxtail (Setaria faberii)", "assay": "Test A preemergence", "details": "Setaria faberi, pre-emergence, 240 h, Preemergence", "in_short": "as §1"}, "[6]": {"tested_on": "ragweed (common ragweed, Ambrosia elatior)", "assay": "Test A preemergence", "details": "Ambrosia artemisiifolia, pre-emergence, 240 h, Preemergence", "in_short": "as §1"}, "[7]": {"tested_on": "barnyardgrass (Echinochloa crus-galli)", "assay": "Test B flooded paddy test", "details": "Echinochloa crus-galli, 360 h, Flood, 250 g ai/ha; visually evaluated after 13 to 15 d; read-out: Plant response rating, Barnyardgrass (0 to 100 scale where 0 is no effect and 100 is complete control)", "in_short": "(§2)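 Flooding to 3 cm over soil accompanied treatment, which consisted of adding compound to the standing water around 2-leaf plants; depth was then maintained. Visual assessment versus controls followed at 13 to 15 d (scale 0–100, 0 meaning no effect).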"}, "[8]": {"tested_on": "sedge, umbrella (small-flower umbrella sedge, Cyperus difformis)", "assay": "Test B flooded paddy test", "details": "Cyperus difformis, 360 h, Flood, 250 g ai/ha; visually evaluated after 13 to 15 d; read-out: Plant response rating, Sedge, Umbrella (0 to 100 scale where 0 is no effect and 100 is complete control)", "in_short": "as §2"}, "rice (Oryra sativa)": {"tested_on": "rice (Oryra sativa)", "assay": "Test B flooded paddy test", "details": "Oryza sativa, 360 h, Flood, 250 g ai/ha; visually evaluated after 13 to 15 d; read-out: Plant response rating, Rice (0 to 100 scale where 0 is no effect and 100 is complete control)", "in_short": "as §2"}, "[9]": {"tested_on": "ducksalad (Heteranthera limosa)", "assay": "Test B flooded paddy test", "details": "Heteranthera limosa, 360 h, Flood, 250 g ai/ha; visually evaluated after 13 to 15 d; read-out: Plant response rating, Ducksalad (0 to 100 scale where 0 is no effect and 100 is complete control)", "in_short": "as §2"}, "[10]": {"tested_on": "pigweed (Amaranthus retroflexus)", "assay": "Test A postemergence", "details": "Amaranthus retroflexus, post-emergence, 240 h, Postemergence, read-out: Pigweed plant response rating (0 to 100 scale)", "in_short": "as §1"}, "[11]": {"tested_on": "ryegrass, Italian (Italian ryegrass, Lolium multiflorum)", "assay": "Test A postemergence", "details": "Lolium multiflorum, post-emergence, 240 h, Postemergence, read-out: Ryegrass, Italian plant response rating (0 to 100 scale)", "in_short": "as §1"}, "Kochia (Kochia scoparia) [12]": {"tested_on": "Kochia (Kochia scoparia)", "assay": "Test A postemergence", "details": "Bassia scoparia, post-emergence, 240 h, Postemergence, read-out: Kochia plant response rating (0 to 100 scale)", "in_short": "as §1"}, "corn (Zea mays)": {"tested_on": "corn (Zea mays)", "assay": "Test A postemergence", "details": "Zea mays, post-emergence, 240 h, Postemergence, read-out: Corn plant response rating (0 to 100 scale)", "in_short": "as §1"}, "[13]": {"tested_on": "barnyardgrass (Echinochloa crus-galli)", "assay": "Test A postemergence", "details": "Echinochloa crus-galli, post-emergence, 240 h, Postemergence", "in_short": "as §1"}, "[14]": {"tested_on": "wheat (Triticum aestivum)", "assay": "Test A postemergence", "details": "Triticum aestivum, post-emergence, 240 h, Postemergence, read-out: Wheat plant response rating (0 to 100 scale)", "in_short": "as §1"}, "[15]": {"tested_on": "Galium (catchweed bedstraw, Galium aparine)", "assay": "Test A postemergence", "details": "Galium, post-emergence, 240 h, Postemergence, read-out: Galium plant response rating (0 to 100 scale)", "in_short": "as §1"}, "[16]": {"tested_on": "giant foxtail (Setaria faberii)", "assay": "Test A postemergence", "details": "Setaria faberi, post-emergence, 240 h, Postemergence, read-out: Foxtail, Giant plant response rating (0 to 100 scale)", "in_short": "as §1"}, "[17]": {"tested_on": "ragweed (common ragweed, Ambrosia elatior)", "assay": "Test A postemergence", "details": "Ambrosia artemisiifolia, post-emergence, 240 h, Postemergence, read-out: Ragweed plant response rating (0 to 100 scale)", "in_short": "as §1"}, "[18]": {"tested_on": "blackgrass (Alopecurus myosuroides)", "assay": "Test A postemergence", "details": "Alopecurus myosuroides, post-emergence, 240 h, Postemergence, read-out: Blackgrass plant response rating (0 to 100 scale)", "in_short": "as §1"}, "[19]": {"details": "125 g ai/ha, visual rating about 10 d after treatment"}, "[20]": {"details": "31 g ai/ha, 0 is no effect, 100 is complete control"}}, "data": [{"compound": "CN1C[C@H](c2ccc3c(c2)OC(F)(F)O3)[C@@H](C(=O)Nc2cnccc2C(F)(F)F)C1=O", "note": "[Compound 1354]", "values": [{"measurement": "pest or weed control at 31 g/ha", "setting": "[1]; 31 g ai/ha, 0 to 100 scale where 0 is no effect and 100 is complete control, read-out: Pigweed plant response rating", "result": 0, "unit": "%"}, {"measurement": "pest or weed control at 125 g/ha", "setting": "[1]; 125 g ai/ha, 0 to 100 scale (0 no effect, 100 complete control), read-out: Plant response rating, Pigweed", "result": 20, "unit": "%"}, {"measurement": "pest or weed control at 31 g/ha", "setting": "[2]; 31 g ai/ha, 0 to 100 scale where 0 is no effect and 100 is complete control, read-out: Ryegrass, Italian plant response rating", "result": 0, "unit": "%"}, {"measurement": "pest or weed control at 125 g/ha", "setting": "[2]; 125 g ai/ha, 0 to 100 scale (0 no effect, 100 complete control), read-out: Plant response rating, Ryegrass, Italian", "result": 20, "unit": "%"}, {"measurement": "pest or weed control at 31 g/ha", "setting": "Kochia (Kochia scoparia) [3]; 31 g ai/ha, 0 to 100 scale where 0 is no effect and 100 is complete control, read-out: Kochia plant response rating", "result": 0, "unit": "%"}, {"measurement": "pest or weed control at 125 g/ha", "setting": "Kochia (Kochia scoparia) [3]; 125 g ai/ha, 0 to 100 scale (0 no effect, 100 complete control), read-out: Plant response rating, Kochia", "result": 20, "unit": "%"}, {"measurement": "pest or weed control at 31 g/ha", "setting": "[4]; 31 g ai/ha, 0 to 100 scale where 0 is no effect and 100 is complete control, read-out: Barnyardgrass plant response rating", "result": 0, "unit": "%"}, {"measurement": "pest or weed control at 125 g/ha", "setting": "[4]; 125 g ai/ha, 0 to 100 scale (0 no effect, 100 complete control), read-out: Plant response rating, Barnyardgrass", "result": 80, "unit": "%"}, {"measurement": "pest or weed control at 31 g/ha", "setting": "[5]; 31 g ai/ha, 0 to 100 scale where 0 is no effect and 100 is complete control, read-out: Foxtail, Giant plant response rating", "result": 30, "unit": "%"}, {"measurement": "pest or weed control at 125 g/ha", "setting": "[5]; 125 g ai/ha, 0 to 100 scale (0 no effect, 100 complete control), read-out: Plant response rating, Foxtail, Giant", "result": 100, "unit": "%"}, {"measurement": "pest or weed control at 31 g/ha", "setting": "[6]; 31 g ai/ha, 0 to 100 scale where 0 is no effect and 100 is complete control, read-out: Ragweed plant response rating", "result": 20, "unit": "%"}, {"measurement": "pest or weed control at 125 g/ha", "setting": "[6]; 125 g ai/ha, 0 to 100 scale (0 no effect, 100 complete control), read-out: Plant response rating, Ragweed", "result": 0, "unit": "%"}, {"measurement": "pest or weed control at 250 g/ha", "setting": "[7]", "result": 0, "unit": "%"}, {"measurement": "pest or weed control at 250 g/ha", "setting": "[8]", "result": 0, "unit": "%"}, {"measurement": "pest or weed control at 250 g/ha", "setting": "rice (Oryra sativa)", "result": 0, "unit": "%"}, {"measurement": "pest or weed control at 250 g/ha", "setting": "[9]", "result": 0, "unit": "%"}, {"measurement": "pest or weed control at 125 g/ha", "setting": "[10]; [19]", "result": 0, "unit": "%"}, {"measurement": "pest or weed control at 31 g/ha", "setting": "[10]; [20]", "result": 0, "unit": "%"}, {"measurement": "pest or weed control at 125 g/ha", "setting": "[11]; [19]", "result": 0, "unit": "%"}, {"measurement": "pest or weed control at 31 g/ha", "setting": "[11]; [20]", "result": 0, "unit": "%"}, {"measurement": "pest or weed control at 125 g/ha", "setting": "Kochia (Kochia scoparia) [12]; [19]", "result": 20, "unit": "%"}, {"measurement": "pest or weed control at 31 g/ha", "setting": "Kochia (Kochia scoparia) [12]; [20]", "result": 0, "unit": "%"}, {"measurement": "plant injury at 125 g/ha", "setting": "corn (Zea mays); [19]", "result": 0, "unit": "%"}, {"measurement": "plant injury at 31 g/ha", "setting": "corn (Zea mays); [20]", "result": 0, "unit": "%"}, {"measurement": "pest or weed control at 125 g/ha", "setting": "[13]; 125 g ai/ha, visual rating about 10 d after treatment, read-out: Barnyardgrass plant response rating (0 to 100 scale, 0 no effect, 100 complete control)", "result": 20, "unit": "%"}, {"measurement": "pest or weed control at 31 g/ha", "setting": "[13]; 31 g ai/ha, 0 is no effect, 100 is complete control, read-out: Barnyardgrass plant response rating (0 to 100 scale)", "result": 0, "unit": "%"}, {"measurement": "plant injury at 125 g/ha", "setting": "[14]; [19]", "result": 0, "unit": "%"}, {"measurement": "plant injury at 31 g/ha", "setting": "[14]; [20]", "result": 0, "unit": "%"}, {"measurement": "pest or weed control at 125 g/ha", "setting": "[15]; [19]", "result": 40, "unit": "%"}, {"measurement": "pest or weed control at 31 g/ha", "setting": "[15]; [20]", "result": 20, "unit": "%"}, {"measurement": "pest or weed control at 125 g/ha", "setting": "[16]; [19]", "result": 60, "unit": "%"}, {"measurement": "pest or weed control at 31 g/ha", "setting": "[16]; [20]", "result": 0, "unit": "%"}, {"measurement": "pest or weed control at 125 g/ha", "setting": "[17]; [19]", "result": 0, "unit": "%"}, {"measurement": "pest or weed control at 31 g/ha", "setting": "[17]; [20]", "result": 0, "unit": "%"}, {"measurement": "pest or weed control at 125 g/ha", "setting": "[18]; [19]", "result": 0, "unit": "%"}, {"measurement": "pest or weed control at 31 g/ha", "setting": "[18]; [20]", "result": 0, "unit": "%"}]}]}
